Data taken from patent US8481459B2, “Chemical inhibitors of ethylene biosynthesis” (Academia Sinica, priority 2010, dated 2013).

biological target: T1, recombinant Arabidopsis ACS5 (Arabidopsis thaliana, UniProt Q37001); assay: In vitro ACS activity assay; type: biochemical; conditions: purified recombinant ACS5, 30 min at 25° C.; read-out: estimated half maximal inhibitory concentration (IC50), ACS5 enzyme activity
T1 construct: The full-length cDNA of Arabidopsis ACS5 (At5g65800) was cloned to pETDuet (Novagen); 6His (N); made in house; host or cells: E. coli BL21-CodonPlus (Stratagene)
T1 sequence (Q37001 1-470): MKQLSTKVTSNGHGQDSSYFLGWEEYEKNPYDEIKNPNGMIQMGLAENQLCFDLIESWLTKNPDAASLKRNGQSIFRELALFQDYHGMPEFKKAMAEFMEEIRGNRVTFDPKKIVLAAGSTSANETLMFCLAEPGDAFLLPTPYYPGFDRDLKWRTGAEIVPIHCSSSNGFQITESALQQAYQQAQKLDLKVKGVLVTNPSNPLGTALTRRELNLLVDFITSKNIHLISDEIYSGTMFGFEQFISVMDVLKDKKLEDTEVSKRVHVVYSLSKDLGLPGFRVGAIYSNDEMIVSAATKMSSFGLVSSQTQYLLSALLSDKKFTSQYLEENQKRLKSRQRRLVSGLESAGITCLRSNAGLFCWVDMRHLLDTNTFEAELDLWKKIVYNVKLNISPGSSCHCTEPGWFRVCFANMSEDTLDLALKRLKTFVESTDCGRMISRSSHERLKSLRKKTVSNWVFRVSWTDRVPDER
Method: The full-length cDNA of Arabidopsis ACS5 (At5g65800) was cloned to pETDuet (Novagen) to generate pETDuet-6His-ACS5 for expression in E. coli (BL21-CodonPlus, Stratagene) and subsequent purification of the recombinant ACS5 protein. Protein expression was induced at OD600 0.6 by adding 0.4 mM IPTG, and cells were incubated at 16° C. for 18 h. Cells were harvested by centrifugation at 6000×g for 10 min at 4° C. The cell pellet was washed and suspended in 50 mL phosphate buffer (300 mM NaCl, 20 mM phosphate buffer, pH 7.4) containing 20 mM imidazole. Cell lysis was achieved by a continuous high-pressure cell disrupter (TS 2.2 KW, Constant System) with 30 KPsi at 4° C. After washing the cell disrupter twice with 50 ml phosphate buffer containing 20 mM imidazole, the final 150 ml suspension was centrifuged at 10000×g for 30 min at 4° C. The supernatant was applied to a 5-mL HisTrap FF column in an AKTAprime system (GE Healthcare) and was subsequently washed stepwise with 100 mL buffer A (1 mM EDTA, 5 mM DTT, 250 mM HEPES buffer, pH 8.0) containing 20 mM imidazole, then 100 mL buffer A containing 100 mM imidazole. The bound protein was eluted by a 0.1-1.0 M gradient of imidazole in 25 mL buffer A and stored at −80° C. until further analysis.
ACS activity assay was performed as described (Lizada, et al. (1979) Anal Biochem 100, 140-145; Yamagami, et al. (2003) J Biol Chem 278, 49102-49112), with minor modifications. […] Ethylene level was measured by use of a gas chromatograph (HP 6890, Hewlett-Packard) equipped with a capillary column (19095P-U04, Agilent Technologies) and an autosampler (HP 7694, Agilent Technologies). […]
To further test this possibility, recombinant Arabidopsis ACS5 protein from bacterial cells was purified for an in vitro enzyme activity assay. […] The quantity of ACC converted to ethylene by recombinant ACS5 is the readout of ACS activity. […]

Structure (SMILES)	IC50
Cc1ccc(C2CC(=O)c3cnc(NC4CCCC4)nc3C2)cc1 (stereo not drawn) [Compound 9370]	1.4 µM
COc1ccc(C2CC(=O)c3cnc(Nc4ccccc4)nc3C2)cc1 (stereo not drawn) [Compound 7303]	0.5 µM
CC1(C)CC(=O)c2cnc(NC3CCCC3)nc2C1 [Compound 9393]	3.2 µM
